Experimental data published in PubChem BioAssay AID330 (DTP/NCI, 2004).
Values joined by “and” are separate entries in the source; they are usually repeats but may differ in a detail not shown here. Equal values may be shown once. Inconclusive results and toxic doses are left out. How the source made its calls: active means survival T/C of 150% or more; inactive means T/C below 125% in these data.

Tested on: P388 leukemia ip, CD2F1 mice, survival T/C
Test: NCI In Vivo Anticancer Drug Screen. Data for tumor model P388 Leukemia (intraperitoneal) in CD2F1 (CDF1) mice
Details: endpoint: median survival time, higher = longer survival
Summary of the method: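 Mice carrying the transplanted tumor received test compound or vehicle. Survival was recorded in each group, and the value is the treated-group measurement divided by that of the vehicle-treated control group.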

[1] = dose: 50.0 mg/kg/injection, schedule: Q01DX009 (ip), vehicle: Klucel (hydroxypropylcellulose) (HPC)
[2] = dose: 100.0 mg/kg/injection, schedule: Q01DX009 (ip), vehicle: Klucel (hydroxypropylcellulose) (HPC)
[3] = dose: 200.0 mg/kg/injection, schedule: Q01DX009 (ip), vehicle: Klucel (hydroxypropylcellulose) (HPC)
[4] = dose: 50.0 mg/kg/injection, schedule: Q01DX005 (ip), vehicle: saline with Tween-80
[5] = dose: 100.0 mg/kg/injection, schedule: Q01DX005 (ip), vehicle: saline with Tween-80
[6] = dose: 200.0 mg/kg/injection, schedule: Q01DX005 (ip), vehicle: saline with Tween-80
[7] = dose: 100.0 mg/kg/injection, schedule: Q01DX001 (ip), vehicle: saline with Tween-80
[8] = dose: 6.25 mg/kg/injection, schedule: Q01DX009 (ip), vehicle: water
[9] = dose: 12.5 mg/kg/injection, schedule: Q01DX009 (ip), vehicle: water
[10] = dose: 25.0 mg/kg/injection, schedule: Q01DX009 (ip), vehicle: water
[11] = dose: 50.0 mg/kg/injection, schedule: Q01DX009 (ip), vehicle: water
[12] = dose: 6.25 mg/kg/injection, schedule: Q01DX009 (ip), vehicle: saline with Tween-80
[13] = dose: 12.5 mg/kg/injection, schedule: Q01DX009 (ip), vehicle: saline with Tween-80
[14] = dose: 25.0 mg/kg/injection, schedule: Q01DX009 (ip), vehicle: saline with Tween-80
[15] = dose: 50.0 mg/kg/injection, schedule: Q01DX009 (ip), vehicle: saline with Tween-80
[16] = dose: 100.0 mg/kg/injection, schedule: Q01DX009 (ip), vehicle: saline with Tween-80
[17] = dose: 200.0 mg/kg/injection, schedule: Q01DX009 (ip), vehicle: saline with Tween-80
[18] = dose: 60.0 mg/kg/injection, schedule: Q01DX005 (ip), vehicle: saline with Tween-80
[19] = dose: 120.0 mg/kg/injection, schedule: Q01DX005 (ip), vehicle: saline with Tween-80
[20] = dose: 240.0 mg/kg/injection, schedule: Q01DX005 (ip), vehicle: saline with Tween-80

Measured: T/C

COc1ccc(CC(C#N)c2ccc(Cl)cc2)cc1 (configuration not stated)
inactive: [1] 107 % of control | [2] 101 % of control | [3] 98 % of control | dose: 400.0 mg/kg/injection, schedule: Q01DX009 (ip), vehicle: Klucel (hydroxypropylcellulose) (HPC) 98 % of control

CN1OC(=O)OC(C)(c2ccccc2)C1=O (configuration not stated)
inactive: [4] 98 % of control | [5] 97 % of control | [6] 97 % of control

O=C(O)/C(=C\c1c(Cl)n(-c2ccccc2)c2ccccc12)NC(=O)c1ccccc1
inactive: [7] 92 % of control | dose: 200.0 mg/kg/injection, schedule: Q01DX001 (ip), vehicle: saline with Tween-80 88 % of control

Cc1cccc(=O)[n-]1.Cc1cccc(=O)[n-]1.Cc1cccc(=O)[n-]1.Cc1cccc(=O)[n-]1.[Mo+2].[Mo+2]
inactive: dose: 100.0 mg/kg/injection, schedule: Q04DX002 (ip), vehicle: Klucel (hydroxypropylcellulose) (HPC) 102 % of control | dose: 200.0 mg/kg/injection, schedule: Q04DX002 (ip), vehicle: Klucel (hydroxypropylcellulose) (HPC) 98 % of control | dose: 400.0 mg/kg/injection, schedule: Q04DX002 (ip), vehicle: Klucel (hydroxypropylcellulose) (HPC) 100 % of control

COc1ccc(-c2nccc3cc(OC)c(OC)cc23)cc1OC
inactive: [8] 100 % of control | [9] 103 % of control | [10] 106 % of control | [11] 118 % of control

CCOC(=O)NC(=S)C1=C(N2CCOCC2)CCC1
inactive: [1] 106 % of control | [2] 122 % of control | [3] 97 % of control

COc1cc(OC)c(-c2oc3c(OC)c(OC)c(OC)c(OC)c3c(=O)c2OC)cc1OC
inactive: dose: 15.0 mg/kg/injection, schedule: Q01DX005 (ip), vehicle: Klucel (hydroxypropylcellulose) (HPC) 94 % of control | dose: 30.0 mg/kg/injection, schedule: Q01DX005 (ip), vehicle: Klucel (hydroxypropylcellulose) (HPC) 102 % of control | dose: 60.0 mg/kg/injection, schedule: Q01DX005 (ip), vehicle: Klucel (hydroxypropylcellulose) (HPC) 92 % of control | dose: 120.0 mg/kg/injection, schedule: Q01DX005 (ip), vehicle: Klucel (hydroxypropylcellulose) (HPC) 90 % of control

COC1OC(COC(=O)c2ccccc2)C=C(OC(=O)c2ccccc2)C1=O (configuration not stated)
inactive: [12] 103 % of control | [13] 105 % of control | [14] 103 % of control | [15] 102 % of control and 113 % of control and 114 % of control | [16] 105 % of control and 92 % of control | [17] 114 % of control and 96 % of control

CC(C)(C)c1cc(C(=O)O)c(S)c(C(=O)O)c1
inactive: [1] 104 % of control and 109 % of control | [2] 102 % of control and 100 % of control | [3] 93 % of control

CN1CCCc2cc(/C=C\c3ccnc4ccccc34)ccc21
inactive: dose: 25.0 mg/kg/injection, schedule: Q01DX009 (ip), vehicle: Klucel (hydroxypropylcellulose) (HPC) 93 % of control | [1] 104 % of control | [3] 118 % of control

Clc1ccc2nsnc2c1
inactive: [12] 101 % of control | [13] 95 % of control | [14] 95 % of control | [1] 101 % of control | [15] 104 % of control | [2] 107 % of control | [16] 104 % of control | [3] 108 % of control | [17] 95 % of control

CCCN(CCC)CCCCCO
inactive: dose: 50.0 mg/kg/injection, schedule: Q04DX003 (ip), vehicle: saline with Tween-80 104 % of control | dose: 100.0 mg/kg/injection, schedule: Q04DX003 (ip), vehicle: saline with Tween-80 100 % of control | dose: 200.0 mg/kg/injection, schedule: Q04DX003 (ip), vehicle: saline with Tween-80 100 % of control

CCC1(CN(C)C)C(=O)N(C)C(=O)N(C2CCCCC2)C1=O (configuration not stated)
inactive: [15] 96 % of control | [16] 102 % of control | [17] 107 % of control

CC1C(c2ccccc2)=NN(C)c2ccccc21 (configuration not stated)
inactive: [18] 97 % of control | [19] 102 % of control | [20] 90 % of control

CC(Cc1ccccc1)NN1CCOC(c2ccccc2)C1C (configuration not stated)
inactive: dose: 100.0 mg/kg/injection, schedule: Q04DX002 (ip), vehicle: saline 102 % of control | dose: 200.0 mg/kg/injection, schedule: Q04DX002 (ip), vehicle: saline 107 % of control | dose: 400.0 mg/kg/injection, schedule: Q04DX002 (ip), vehicle: saline 101 % of control

CN=C(N)N/N=C(\C)c1ccc(-c2ccccc2)cc1
inactive: dose: 25.0 mg/kg/injection, schedule: Q04DX002 (ip), vehicle: saline with Tween-80 105 % of control | dose: 50.0 mg/kg/injection, schedule: Q04DX002 (ip), vehicle: saline with Tween-80 106 % of control

Cc1csc(NN=O)n1
inactive: dose: 1.56 mg/kg/injection, schedule: Q01DX009 (ip), vehicle: water 98 % of control | dose: 3.12 mg/kg/injection, schedule: Q01DX009 (ip), vehicle: water 104 % of control and 95 % of control | [8] 105 % of control and 96 % of control | [9] 100 % of control and 102 % of control | [10] 99 % of control and 102 % of control | [11] 111 % of control

CC1(COC(=O)C2(C)CO2)CO1 (configuration not stated)
inactive: dose: 25.0 mg/kg/injection, schedule: Q01DX005 (ip), vehicle: water 99 % of control | dose: 50.0 mg/kg/injection, schedule: Q01DX005 (ip), vehicle: saline 91 % of control | dose: 50.0 mg/kg/injection, schedule: Q01DX005 (ip), vehicle: water 101 % of control and 115 % of control | dose: 100.0 mg/kg/injection, schedule: Q01DX005 (ip), vehicle: saline 97 % of control | dose: 100.0 mg/kg/injection, schedule: Q01DX005 (ip), vehicle: water 120 % of control | dose: 200.0 mg/kg/injection, schedule: Q01DX005 (ip), vehicle: saline 91 % of control

O=c1[nH]cnc2[nH]ccc12
inactive: [15] 106 % of control

CCCCCCN(CCCCCC)CC(O)c1cc(-c2ccccc2)nc2ccccc12 (configuration not stated)
inactive: [4] 100 % of control | [5] 103 % of control | [6] 105 % of control

Nc1ncnc2cc3cn[nH]c3cc12
inactive: dose: 12.5 mg/kg/injection, schedule: Q01DX005 (ip), vehicle: saline with Tween-80 96 % of control | dose: 25.0 mg/kg/injection, schedule: Q01DX005 (ip), vehicle: saline with Tween-80 95 % of control | [4] 94 % of control and 97 % of control | [5] 91 % of control | [6] 100 % of control

CCOC(OCC)c1ccc(-n2c(N)c(C#N)cnc2=S)c2c1OC2=NC=C(C#N)C#N
inactive: dose: 50.0 mg/kg/injection, schedule: Q01DX009 (ip), vehicle: saline 112 % of control | dose: 100.0 mg/kg/injection, schedule: Q01DX009 (ip), vehicle: saline 102 % of control | dose: 200.0 mg/kg/injection, schedule: Q01DX009 (ip), vehicle: saline 100 % of control

CCOC(=O)[C@@H](F)[C@H](Br)C(=O)OCC
inactive: [15] 100 % of control and 110 % of control | [16] 113 % of control and 122 % of control

NSc1ccccn1
inactive: dose: 25.0 mg/kg/injection, schedule: Q01DX001 (ip), vehicle: Klucel (hydroxypropylcellulose) (HPC) 96 % of control | dose: 50.0 mg/kg/injection, schedule: Q01DX001 (ip), vehicle: Klucel (hydroxypropylcellulose) (HPC) 96 % of control | dose: 100.0 mg/kg/injection, schedule: Q01DX001 (ip), vehicle: Klucel (hydroxypropylcellulose) (HPC) 97 % of control | [7] 102 % of control

COc1ccc(S(=O)(=O)/C(=C/c2ccccc2[N+](=O)[O-])C(=O)c2ccccc2)cc1
inactive: [4] 111 % of control | [5] 103 % of control | [6] 104 % of control

O=C1CCC(Cc2ccc(Br)cc2)C(=O)N1 (configuration not stated)
inactive: [18] 104 % of control | [19] 98 % of control | [20] 98 % of control

O=C1C2C=CC(c3ccccc32)N1/C=C/c1ccccc1 (configuration not stated)
inactive: dose: 100.0 mg/kg/injection, schedule: Q04DX003 (ip), vehicle: Klucel (hydroxypropylcellulose) (HPC) 101 % of control | dose: 200.0 mg/kg/injection, schedule: Q04DX003 (ip), vehicle: Klucel (hydroxypropylcellulose) (HPC) 99 % of control | dose: 400.0 mg/kg/injection, schedule: Q04DX003 (ip), vehicle: Klucel (hydroxypropylcellulose) (HPC) 97 % of control

Cc1c2ccn(Cc3ccccc3)cc2c(C)c2c1nc1ccccc12
inactive: dose: 19.25 mg/kg/injection, schedule: Q04DX002 (ip), vehicle: saline with Tween-80 121 % of control | dose: 38.5 mg/kg/injection, schedule: Q04DX002 (ip), vehicle: saline with Tween-80 113 % of control

N#Cc1c2c(c(O)[nH]c1=O)C(=O)c1ccccc1-2
inactive: [13] 115 % of control | [14] 104 % of control | [15] 93 % of control
